Data on 13 compounds can be found in ChEMBL document CHEMBL1141930, “N-methylsansalvamide a peptide analogues. Potent new antitumor agents” (J Med Chem, 2005).

Values after ≈ are worked out from the molar mass of the structure shown. Active and inactive are the calls of the source. The rule behind the calls is not given here. Where a SMILES comes first, the peptide text is derived from it. [ ]: non-standard residue; d: D form. NMePhe(4-Br) = CN[C@@H](Cc1ccc(Br)cc1)C(=O)O; Phe(4-Br) = N[C@@H](Cc1ccc(Br)cc1)C(=O)O; NMeF = CN[C@@H](Cc1ccccc1)C(=O)O; Hica(2S) = CC(C)C[C@H](O)C(=O)O; NMeL = CN[C@@H](CC(C)C)C(=O)O; NMeV = CN[C@H](C(=O)O)C(C)C

The subject of experiment [1] is PC-3. Kind of experiment: Effect of N-methylation in PC-3 human prostate cancer cells; exhibited lowest activity. In kind it is functional, cell-based.
Experiment [2] deals with MDA-MB-231. As to the kind of experiment: Effect of N-methylation in MDA-MB-231 human […] cancer cells; exibit less potency. In kind it is functional, cell-based.
Experiment [3] deals with WM-115. As to the kind of experiment: Potency against human WM-115 cells; exhibited average potency. In kind it is functional, cell-based.
Experiment [4] has as its system MDA-MB-231. Kind of experiment: Inhibitory activity against MDA-MB-231 cells; exhibited moderate activity. In kind it is functional, cell-based. The note with it: Homo sapiens.
The nature of experiment [5]: Mean inhibitory concentration against cancer cell lines. Type of experiment: functional, cell-based, Homo sapiens.
In experiment [6] the test system is PC-3. Kind of experiment: Effect of N-methylation in PC-3 human prostate cancer cells. Type of experiment: functional, cell-based.
Experiment [7] concerns Cancer cell lines. Kind of experiment: Inhibitory activity against S2-013 human pancreatic cancer cells; demonstarted good activity. Type of experiment: functional, cell-based.
Experiment [8] deals with Cancer cell lines. Kind of experiment: Inhibitory activity against AsPC-1 human pancreatic cancer cells; demonstarted good activity. Type of experiment: functional, cell-based.
Experiment [9] deals with WM-115. As to the kind of experiment: Concentration at which the compound exibit good activity WM-115 human melanoma cells. In kind it is functional, cell-based.
The subject of experiment [10] is MDA-MB-231. As to the kind of experiment: Inhibitory activity against MDA-MB-231 human […] cancer cells; demonstarted good activity. In kind it is functional, cell-based.
Experiment [11] deals with PC-3. Kind of experiment: Inhibitory activity against PC-3 human prostate cancer cells; demonstarted good activity. In kind it is functional, cell-based.
The test system of experiment [12] is MDA-MB-231. As to the kind of experiment: Effect of N-methylation in MDA-MB-231 human […] cancer cells; exibit high potency. Type of experiment: functional, cell-based.
In experiment [13] the test system is PC-3. As to the kind of experiment: Effect of N-methylation in PC-3 human prostate cancer cells; exhibited more potency. Type of experiment: functional, cell-based.
Experiment [14] relates to MDA-MB-231. Kind of experiment: Concentration at which the compound exibit more potency against MDA-MB-231 human […] cancer cells. Type of experiment: functional, cell-based.
Experiment [15] has as its system PC-3. Kind of experiment: Concentration at which the compound exibit more potency against PC-3 human prostate cancer cells. Type of experiment: functional, cell-based.
Experiment [16] deals with Cancer cell lines. As to the kind of experiment: Concentration at which the compound exibit more potency agains AsPC-1 human pancreatic cancer cells. Type of experiment: functional, cell-based.
The test system of experiment [17] is MDA-MB-231. As to the kind of experiment: Inhibitory activity against MDA-MB-231 cells; demonstarted high activity. In kind it is functional, cell-based. As to conditions: Homo sapiens.
The subject of experiment [18] is PC-3. Kind of experiment: Effective concentration against PC-3 human prostate cancer cells. In kind it is functional, cell-based.
Experiment [19] relates to Cancer cell lines. As to the kind of experiment: Potency exhibited by the compound against well-differentiated S2-013 human pancreatic cancer cell line; much more potent. Type of experiment: functional, cell-based.

In the case of `CC(C)C[C@@H]1NC(=O)[C@H](Cc2ccccc2)NC(=O)[C@H](CC(C)C)NC(=O)[C@H](C(C)C)NC(=O)[C@H](CC(C)C)NC1=O` (cyclo(FLLVL)), the Activity entry in the experiment on PC-3 [1] is “Not Very Active”; in the experiment with MDA-MB-231 [2], “Potent”. Further, the result in the experiment on WM-115 [3] was Active.
On to `CC(C)C[C@@H]1NC(=O)[C@H](Cc2ccccc2)NC(=O)[C@H](CC(C)C)N(C)C(=O)[C@H](C(C)C)NC(=O)[C@H](CC(C)C)NC1=O` (cyclo(FLLV[NMeL])), for which the outcome in the experiment on MDA-MB-231 [4] was Active.
On the same count and under the same terms, the same measure for `CC(C)C[C@@H]1NC(=O)[C@H](Cc2ccccc2)NC(=O)[C@H](CC(C)C)NC(=O)[C@H](C(C)C)N(C)C(=O)[C@H](CC(C)C)NC1=O` (cyclo(FLL[NMeV]L)): “Active”.
In experiment [5], `CC(C)C[C@@H]1NC(=O)[C@H](C(C)C)NC(=O)[C@H](CC(C)C)OC(=O)[C@H](CC(C)C)NC(=O)[C@H](Cc2ccccc2)NC1=O` (cyclo(FL[Hica(2S)]VL)) showed an IC50 of 27.4 µg/mL (≈ 46.7 µM).
For `CC(C)C[C@@H]1NC(=O)[C@H](C(C)C)NC(=O)[C@H](CC(C)C)N(C)C(=O)[C@H](CC(C)C)NC(=O)[C@H](Cc2ccccc2)NC1=O` (cyclo(FL[NMeL]VL)), the Activity entry with MDA-MB-231 [2] was “Potent”.
Turning to `CC(C)C[C@@H]1NC(=O)[C@H](C(C)C)NC(=O)[C@H](CC(C)C)NC(=O)[C@H](CC(C)C)N(C)C(=O)[C@H](Cc2ccccc2)NC1=O` (cyclo(F[NMeL]LVL)), the Activity result with PC-3 [6] is “Not Very Active”; with MDA-MB-231 [2], “Potent”.
For `CC(C)C[C@@H]1NC(=O)[C@H](CC(C)C)NC(=O)[C@H](Cc2ccccc2)N(C)C(=O)[C@H](CC(C)C)NC(=O)[C@H](C(C)C)NC1=O` (cyclo([NMeF]LLVL)), in that order: “Not Very Active” and “Potent”.
Regarding `CC(C)C[C@@H]1NC(=O)[C@H](CC(C)C)NC(=O)[C@H](Cc2ccc(Br)cc2)N(C)C(=O)[C@H](CC(C)C)NC(=O)[C@H](C(C)C)NC1=O` (cyclo([NMePhe(4-Br)]LLVL)), the outcome in the experiment with Cancer cell lines [7], with Cancer cell lines [8], in the experiment on MDA-MB-231 [10] and in the experiment with PC-3 [11] was Active. Also, in the experiment on WM-115 [9], the Concentration was 10 µM.
For `CC(C)C[C@@H]1NC(=O)[C@H](Cc2ccc(Br)cc2)NC(=O)[C@H](CC(C)C)NC(=O)[C@H](C(C)C)NC(=O)[C@H](CC(C)C)NC1=O` (cyclo([Phe(4-Br)]LLVL)), the Activity entry in the experiment on MDA-MB-231 [12] was “Potent”; in the experiment with PC-3 [13], “More potent”.
With `CC(C)C[C@@H]1NC(=O)[C@H](Cc2ccc(Br)cc2)NC(=O)[C@H](CC(C)C)N(C)C(=O)[C@H](C(C)C)NC(=O)[C@H](CC(C)C)NC1=O` (cyclo([Phe(4-Br)]LLV[NMeL])), the outcome with Cancer cell lines [7] was Active. In addition, the Concentration in the experiment with MDA-MB-231 [14], in the experiment on PC-3 [15], in the experiment on WM-115 [9] and in the experiment with Cancer cell lines [16] was 10 µM each time.
Regarding `CC(C)C[C@@H]1NC(=O)[C@H](Cc2ccc(Br)cc2)NC(=O)[C@H](CC(C)C)NC(=O)[C@H](C(C)C)N(C)C(=O)[C@H](CC(C)C)NC1=O` (cyclo([Phe(4-Br)]LL[NMeV]L)), the result with MDA-MB-231 [4] was Active.
For the compound `CC(C)C[C@@H]1NC(=O)[C@H](C(C)C)NC(=O)[C@H](CC(C)C)N(C)C(=O)[C@H](CC(C)C)NC(=O)[C@H](Cc2ccc(Br)cc2)NC1=O` (cyclo([Phe(4-Br)]L[NMeL]VL)), the figures for the Activity entry with PC-3 [6] and in the experiment on MDA-MB-231 [2] were “Not Very Active” and “Potent”, respectively. Also, the result in the experiment on MDA-MB-231 [17] was Active.
Consider `CC(C)C[C@@H]1NC(=O)[C@H](C(C)C)NC(=O)[C@H](CC(C)C)NC(=O)[C@H](CC(C)C)N(C)C(=O)[C@H](Cc2ccc(Br)cc2)NC1=O` (cyclo([Phe(4-Br)][NMeL]LVL)), for which the Concentration in the experiment on MDA-MB-231 [14] and in the experiment with PC-3 [15] was 10 µM each time. Moreover, the result with Cancer cell lines [8] and in the experiment with Cancer cell lines [19] was Active. In addition, in the experiment with PC-3 [18], a half-maximal response (EC50) required 7.5 µM.

By IC50 is commonly meant the concentration needed to halve the response being measured. In general, EC50 refers to the concentration giving half of the maximal effect.
